Source: ChEMBL document CHEMBL1201862, “PubChem BioAssay data set” (2004)
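All cell lines were grown in 96-well plates and treated with compound for 48 hours. The concentration for 50% growth inhibition is given as GI50.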 The source made the active and inactive calls. No stated cut-off is given here; in the data, active = GI50 up to about 1.1 µM and inactive = higher.

Assays:
Experiment in all cases: DTP human tumour cell line panel, 48 h
SN12C = tested on: SN12C
T47D = tested on: T47D
BT-549 = tested on: BT-549
HCT-15 = tested on: HCT-15
TK-10 = tested on: TK-10
SF-539 = tested on: SF-539
SK-MEL-28 = tested on: SK-MEL-28
UACC-257 = tested on: UACC-257
MOLT-4 = tested on: MOLT-4
HOP-62 = tested on: HOP-62
CCRF-CEM = tested on: CCRF-CEM
SF-295 = tested on: SF-295
U-251 = tested on: U-251
UO-31 = tested on: UO-31
SK-MEL-5 = tested on: SK-MEL-5
LOX IMVI = tested on: LOX IMVI
SK-MEL-2 = tested on: SK-MEL-2
HCT-116 = tested on: HCT-116
HT-29 = tested on: HT-29
KM12 = tested on: KM12

Row | SMILES | GI50 (SN12C) | GI50 (T47D) | GI50 (BT-549) | GI50 (HCT-15) | GI50 (TK-10) | GI50 (SF-539) | GI50 (SK-MEL-28) | GI50 (UACC-257) | GI50 (MOLT-4) | GI50 (HOP-62) | GI50 (CCRF-CEM) | GI50 (SF-295) | GI50 (U-251) | GI50 (UO-31) | GI50 (SK-MEL-5) | GI50 (LOX IMVI) | GI50 (SK-MEL-2) | GI50 (HCT-116) | GI50 (HT-29) | GI50 (KM12)
1 | CCN(CC)C(=O)Cn1c(C)cc2ccccc21 | > 100 µM (inactive) | > 100 µM (inactive) | > 100 µM (inactive) | > 100 µM | > 100 µM (inactive) | > 100 µM (inactive) | > 100 µM (inactive) | > 100 µM (inactive) | > 100 µM (inactive) | > 100 µM (inactive) | > 100 µM (inactive) | > 100 µM (inactive) | > 100 µM (inactive) | > 100 µM (inactive) | > 100 µM (inactive) | > 100 µM (inactive) | > 100 µM (inactive) | > 100 µM (inactive) | > 100 µM (inactive) | > 100 µM (inactive)
2 | O=C1C=Cc2c(Br)sc(Br)c21 | 39.8 µM (inactive) | 34 µM (inactive) | 27.3 µM (inactive) | 26.2 µM | 4.78 µM (inactive) | 59.3 µM (inactive) | 28.8 µM (inactive) | 26.6 µM (inactive) | 13.5 µM (inactive) | 29.8 µM (inactive) | 2.64 µM (inactive) | > 100 µM (inactive) | 18.5 µM (inactive) | 17.7 µM (inactive) | 91.2 µM (inactive) | 20.5 µM (inactive) | 26.9 µM (inactive) | 29.1 µM (inactive) | 28.2 µM (inactive) | 37.4 µM (inactive)
3 | O=C1NC(=S)NC(=O)C1=Cc1cccc2cc3ccccc3cc12 | 2.32 µM (inactive) | 0.9 µM (active) | 1.71 µM (inactive) | 1.68 µM | 1.89 µM (inactive) | 1.58 µM (inactive) | 2.57 µM (inactive) | 1.78 µM (inactive) | 2.12 µM (inactive) | 1.84 µM (inactive) | 0.378 µM (active) | 2.46 µM (inactive) | 1.69 µM (inactive) | 1.95 µM (inactive) | 2.07 µM (inactive) | 1.67 µM (inactive) | 1.92 µM (inactive) | 1.95 µM (inactive) | 2.13 µM (inactive) | 1.98 µM (inactive)
4 | CCOCCOCCOCc1nc(C#N)c(N)o1 | > 100 µM (inactive) | > 100 µM (inactive) | > 100 µM (inactive) | > 100 µM | > 100 µM (inactive) | > 100 µM (inactive) | > 100 µM (inactive) | > 100 µM (inactive) | > 100 µM (inactive) | > 100 µM (inactive) | > 100 µM (inactive) | > 100 µM (inactive) | > 100 µM (inactive) | > 100 µM (inactive) | > 100 µM (inactive) | > 100 µM (inactive) | > 100 µM (inactive) | > 100 µM (inactive) | > 100 µM (inactive) | > 100 µM (inactive)
5 | O=C1c2ccccc2C(=O)N1n1c(Cc2ccc(Cl)cc2)n[nH]c1=O | > 100 µM (inactive) | > 100 µM (inactive) | > 100 µM (inactive) | > 100 µM | > 100 µM (inactive) | > 100 µM (inactive) | > 100 µM (inactive) | > 100 µM (inactive) | > 100 µM (inactive) | > 100 µM (inactive) | > 100 µM (inactive) | > 100 µM (inactive) | > 100 µM (inactive) | > 100 µM (inactive) | > 100 µM (inactive) | > 100 µM (inactive) | > 100 µM (inactive) | > 100 µM (inactive) | > 100 µM (inactive) | > 100 µM (inactive)
6 | OCCNc1ncnc2c1ncn2C1OC(CO)C(O)C1O (stereo not given) | 80.5 µM (inactive) | > 100 µM (inactive) | > 100 µM (inactive) | 42.5 µM | 71.3 µM (inactive) | > 100 µM (inactive) | > 100 µM (inactive) | > 100 µM (inactive) | 0.224 µM (active) | > 100 µM (inactive) | 30.3 µM (inactive) | > 100 µM (inactive) | > 100 µM (inactive) | 57.4 µM (inactive) | > 100 µM (inactive) | 40.4 µM (inactive) | > 100 µM (inactive) | 70.5 µM (inactive) | > 100 µM (inactive) | > 100 µM (inactive)
